# Laboratory results: patent US11491139B2, “Inhibition of YAP for breaking tumor immune tolerance” (The Johns Hopkins University, priority 2015, dated 2022)
# Experiments:
# [1] = statement with reference [17]; may limit bioavailability; cited from earlier work
# B16-melanoma cells = assay: B16-melanoma growth experiments in mice (tumor volume); format: in vivo; conditions: C57BL/6 mice challenged with B16-melanoma, Verteporfin 2 mg/mouse i.p. every two days, anti-PD-1 (G4) 100 μg/mouse i.p. twice a week, GVAX 1×10^6 irradiated cells s.c., FIG. 4
# Procedure: C57BL/6 mice were challenged with B16-melanoma cells and tumor progression was monitored as in FIG. 3. Cohorts of mice were injected treated with either VP, GVAX, anti-PD1 antibody, VP and anti-PD-1, or VP and GVAX beginning one day post-tumor injection. Control mice were left untreated (n=5/group). Shown are the mean tumor volumes for the groups +/−SD.
# B16-melanoma cells were cultured in vitro in DMEM plus 10% heat inactivated Fetal Bovine Serum and were detached by trypsinization and washed prior to s.c. injection into the footpads of C57BL/6 mice (NCI). 1-5×10^4 B16 melanoma cells were injected each mouse in the footpad. In some cases, 10^5 B16 cells were injected. Once tumors were palpable (7-10 days), […] of 1×10^6 lethally irradiated (150Gy) B16 GM-vaccine cells were injected subcutaneously into the contralateral limb. For all these experiments, 5-10 mice were used per group. A hybridoma cell line expressing a blocking anti-PD-1 antibody (clone G4) was obtained from Dr. Charles Drake (JHH). […] Tumor volume was determined by digital caliper measurements throughout the experiment. The relative tumor volume was calculated by the formula: Length (mm)×Width (mm)×Height (mm)×0.5326×0.01. […] Cytokines and Foxp3 were measured by intracellular flow cytometry.
substance,measurement,setting,value
Verteporfin,solubility,[1],prone to solubility issues
same,tumor growth / tumor size (tumor volume),B16-melanoma cells,modest reduction in tumor size
same,tumor growth / tumor size (tumor volume),B16-melanoma cells; listed as VP,did not alter the course of tumor growth
